Assay results reported in patent US12297175B2, “Physics-driven discovery of novel small therapeutic compounds for use as a BCL-2 inhibitor” (BAHCESEHIR UNIVERSITESI, priority 2020, dated 2025).

Tested on: HCT-116 cell lines
Test: MTT cell proliferation assay
Format: cell-based
Procedure: For cell culture experiments various cancer cell lines, HCT-116 colon cancer, U87-MG glial tumor, MCF7 breast cancer cell lines were used. Cells were seeded with high glucose DMEM medium (Biosera) supplemented with 10% FBS (Gibco) and 1× penicillin/streptomycin (Multicell). Twenty-four hours prior to molecule treatment, 10,000 cells were seeded into each well of 24-well cell culture plates. Molecules were used by preparing 4 mM stock solution in DMSO (Amresco). For molecule treatment, molecule stock solutions were diluted in DMEM with 10% FBS and added onto cells in each corresponding well. Final concentration of vehicle DMSO was 2% at maximum. […] We calculated the number of cells to be seeded to make sure that none of the cells reaches more than 60% confluency during the treatment period, as higher plate confluency levels would slow down cell proliferation independently from the molecule treatment.
Values of half-maximal inhibitory concentration were (IC50) determined by MTT cell proliferation assays. […] 570 nm absorbance values were recorded and IC50 values were calculated by dose response—inhibition curves and nonlinear regression analysis on GraphPad Prism 8 software. […] Following the initial incubation day, molecules were added and after incubation with MTT at 37° C. for 4 hours, formazan was solubilized with DMSO (Sigma-Aldrich, St. Louis, USA) and absorbance was measured at 570 nm. […]

Cc1ccc(C2CC(=O)N=C(SCC(=O)Nc3ccc(Br)cc3Cl)C2C#N)cc1 (centres unmarked) [compound of formula I]
cell proliferation compared with vehicle group (FIG. 1) (HCT-116 cells, cell viability over time vs vehicle (max 2% DMSO)): reduced proliferation and apoptotic cell structures
IC50 (Homo sapiens, 72 h, HCT-116 colon cancer cells, single treatment, three days results, 570 nm absorbance, read-out: IC50 value (half-maximal inhibitory concentration)): 24 µM
